ChEMBL document CHEMBL1201862, “PubChem BioAssay data set” (2004)
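1) Cells in 96-well plates. 2) Compound, 48 h, 5 concentrations. 3) Linear interpolation between surrounding doses. 4) Unreached endpoint = highest concentration. GI50 is the concentration that inhibits growth by half.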 Active and inactive are the calls of the source. Rule as the data show it: active = GI50 up to about 1.1 µM and inactive = higher.

Experiments:
Assay in all cases: inhibition of tumour cell growth, NCI panel, 48 h
HOP-18 = system: HOP-18
DMS-114 = system: DMS-114
M19-MEL = system: M19-MEL
RXF 631 = system: RXF 631
DLD-1 = system: DLD-1
XF498 = system: XF498
DMS-273 = system: DMS-273
LXFL 529 = system: LXFL 529
SNB-78 = system: SNB-78

Measured: GI50

O=c1ccn(/C=C/C(O)C(O)CO)c(=O)[nH]1 (configuration not stated)
inactive: HOP-18 > 100 µM | DMS-114 > 100 µM | M19-MEL > 100 µM | RXF 631 > 100 µM | DLD-1 > 100 µM | XF498 > 100 µM | DMS-273 > 100 µM | LXFL 529 > 100 µM | SNB-78 > 100 µM

CCCCC(C(=O)C(=O)Nc1ccc(C)cc1C)C(=O)C(C)C (configuration not stated)
inactive: HOP-18 > 100 µM | DMS-114 > 100 µM | M19-MEL > 100 µM | RXF 631 > 100 µM | DLD-1 > 100 µM | XF498 > 100 µM | DMS-273 > 100 µM | LXFL 529 > 100 µM | SNB-78 > 100 µM

Nc1ccc2c(SCC(=O)Nc3ccccc3-c3ccccc3NC(=O)CSc3c4ccccc4nc4cc(N)ccc34)c3ccccc3nc2c1
inactive: HOP-18 26 µM | DMS-114 18.9 µM | M19-MEL 20.2 µM | RXF 631 27.9 µM | DLD-1 12.9 µM | XF498 19.9 µM | DMS-273 33 µM | LXFL 529 11.5 µM | SNB-78 40.9 µM
